From patent publication US9643967B2, “Pyrrolo[3,2-c]pyridine derivatives as TLR inhibitors” (TAKEDA PHARMACEUTICAL COMPANY LIMITED, priority 2013, dated 2017)

Legend:
hTLR9 = molecular target: T1, hTLR9 (Homo sapiens, UniProt Q9NR96); assay: hTLR9 antagonism (SEAP inhibition assay) in HEK-Blue-hTLR9 (HEK293) cells, ODN-2006 stimulated; type: cell-based; settings: HEK-Blue hTLR9, 1 μM; SEAP, HEK-Blue-hTLR9 cells; read-out: hTLR9 inhibitory activity (% at 1 μM)
T1 construct: expressed in transfected cells; host or cells: HEK-Blue-hTLR9 cells (HEK293)
T1 sequence (Q9NR96 26-1032): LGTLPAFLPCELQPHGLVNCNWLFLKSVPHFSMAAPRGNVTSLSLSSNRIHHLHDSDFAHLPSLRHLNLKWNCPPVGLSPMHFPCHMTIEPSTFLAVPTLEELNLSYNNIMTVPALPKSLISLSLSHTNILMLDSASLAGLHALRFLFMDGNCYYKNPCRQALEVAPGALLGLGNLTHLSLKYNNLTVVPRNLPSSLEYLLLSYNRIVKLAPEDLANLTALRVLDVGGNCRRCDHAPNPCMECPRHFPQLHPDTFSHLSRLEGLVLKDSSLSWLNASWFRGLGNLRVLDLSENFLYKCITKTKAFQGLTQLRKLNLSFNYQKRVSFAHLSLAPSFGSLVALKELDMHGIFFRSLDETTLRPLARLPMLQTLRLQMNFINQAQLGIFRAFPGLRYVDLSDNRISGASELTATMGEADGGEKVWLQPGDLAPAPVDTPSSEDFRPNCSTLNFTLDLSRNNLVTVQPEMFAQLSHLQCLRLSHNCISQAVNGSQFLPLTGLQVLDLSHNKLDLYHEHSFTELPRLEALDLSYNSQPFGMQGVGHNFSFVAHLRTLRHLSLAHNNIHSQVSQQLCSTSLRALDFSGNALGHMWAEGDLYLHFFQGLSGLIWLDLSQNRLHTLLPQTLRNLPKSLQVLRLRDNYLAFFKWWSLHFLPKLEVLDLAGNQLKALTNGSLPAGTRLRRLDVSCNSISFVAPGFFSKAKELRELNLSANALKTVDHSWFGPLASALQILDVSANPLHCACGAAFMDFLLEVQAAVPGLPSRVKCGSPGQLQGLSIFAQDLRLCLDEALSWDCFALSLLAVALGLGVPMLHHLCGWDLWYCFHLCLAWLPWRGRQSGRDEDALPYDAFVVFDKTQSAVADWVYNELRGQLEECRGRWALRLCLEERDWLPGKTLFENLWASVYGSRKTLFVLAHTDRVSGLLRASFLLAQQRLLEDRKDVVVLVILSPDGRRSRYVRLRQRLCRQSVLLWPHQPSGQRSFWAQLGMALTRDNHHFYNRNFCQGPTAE

[1] = system: lupus-prone MRL lpr/lpr mice; assay: Mouse lupus disease model, anti-dsDNA IgG titers (ELISA); type: in vivo; settings: female MRL/lpr mice; for mean anti-dsDNA IgG titers after 6 weeks of treatment: oral QD, 3, 10 and 30 mg/kg
Experimental: Mouse Lupus Disease Model
Examples B6 and B11 were tested in well studied mouse model of lupus, lupus-prone MRL lpr/lpr mice that develop disease similar to human SLE [J Exp Med., 1978, 148 (5), 1198-1215]. These mice develop spontaneous systemic autoimmunity with both molecular (IFN signature) and clinical (autoantibody production and glomerulonephritis) features similar to human SLE. Anti-dsDNA antibodies are correlated with human SLE and the reduction in anti-dsDNA antibodies is believed to be of potential clinical benefit. Positive TLR7 and/or TLR9 target validation results have been reported for this disease model.
Mouse Lupus Disease Model Strain:
Female MRL/lpr mice were purchased from Jackson Laboratories (USA) which manifest spontaneous lupus disease. Female MRL/lpr mice were treated for 9 weeks by oral route once a day with TLR-7/9 antagonists [Examples B6 and B11] at 3, 10 and 30 mg/kg doses. Prednisolone (2 mg/kg, P.O., QD) was used as a positive control during the studies. At the end of treatment period, animals were sacrificed and blood samples were collected to estimate anti-dsDNA IgG titers using anti-dsDNA IgG ELISA kit, Alpha Diagnostics, USA.

Cc1nc(-c2ccc(N3CCN(C(C)C)CC3)cc2)c2cc(CCN3CCOCC3)[nH]c2c1C [Example B6, 4-[2-[4-[4-(4-isopropylpiperazin-1-yl)phenyl]-6,7-dimethyl-1H-pyrrolo[3,2-c]pyridin-2-yl]ethyl]morpholine]
inhibition at 1 µM (hTLR9): 79.7%
anti-dsDNA IgG after 9 weeks of treatment ([1]; 10 mg/kg once daily oral, 9 weeks, 10 mg/kg): Significant reduction
mean anti-dsDNA IgG titers after 6 weeks of treatment [1]: trend towards dose dependent reduction

Cc1cc2c(cc(CCN3CCOCC3)n2C)c(-c2ccc(N3CCN(C(C)C)CC3)cc2)n1 [Example B11, 4-[2-[4-[4-(4-isopropylpiperazin-1-yl)phenyl]-1,6-dimethyl-pyrrolo[3,2-c]pyridin-2-yl]ethyl]morpholine]
inhibition at 1 µM (hTLR9): 80%
mean anti-dsDNA IgG titers after 6 weeks of treatment [1]: dose dependent reduction

CC(C)N1CCN(c2ccc(-c3nccc4[nH]c(CCCN5CCOCC5)cc34)cc2)CC1 [Example C1, 4-[3-[4-[4-(4-isopropylpiperazin-1-yl)phenyl]-1H-pyrrolo[3,2-c]pyridin-2-yl]propyl]morpholine]
inhibition at 1 µM (hTLR9): 99.2%

CN1CCN(c2ccc(-c3nccc4[nH]c(CCCN5CCOCC5)cc34)cc2)CC1 [Example C2, 4-[3-[4-[4-(4-methylpiperazin-1-yl)phenyl]-1H-pyrrolo[3,2-c]pyridin-2-yl]propyl]morpholine]
inhibition at 1 µM (hTLR9): 100%

Cc1cc2[nH]c(CCCN3CCOCC3)cc2c(-c2ccc(N3CCN(C(C)C)CC3)cc2)n1 [Example C3, 4-[3-[4-[4-(4-isopropylpiperazin-1-yl)phenyl]-6-methyl-1H-pyrrolo[3,2-c]pyridin-2-yl]propyl]morpholine]
inhibition at 1 µM (hTLR9): 94.8%

Cc1cc2[nH]c(CCCN3CCCCC3)cc2c(-c2ccc(N3CCN(C(C)C)CC3)cc2)n1 [Example C5, 4-[4-(4-isopropylpiperazin-1-yl)phenyl]-6-methyl-2-[3-(1-piperidyl)propyl]-1H-pyrrolo[3,2-c]pyridine]
inhibition at 1 µM (hTLR9): 94.7%

Cc1cc2c(cc(CCCN3CCOCC3)n2C)c(-c2ccc(N3CCN(C(C)C)CC3)cc2)n1 [Example C6, 4-[3-[4-[4-(4-isopropylpiperazin-1-yl)phenyl]-1,6-dimethyl-pyrrolo[3,2-c]pyridin-2-yl]propyl]morpholine]
inhibition at 1 µM (hTLR9): 99.1%
